Bridge positions count the residues as written; N and C are the ends. Square brackets hold non-standard residues; d marks the D form. Triazole bridges read from a SMILES are 1,4-linked. Ends that are not written are not given here. Peptide text beside a SMILES is read from it. * marks the point of attachment. Biotin = O=C1N[C@H]2[C@H](CS[C@H]2CCCCC(=O)*)N1; Lys(N3) = [N-]=[N+]=NCCCC[C@H](N)C(=O)O; Pra = C#CC[C@H](N)C(=O)O; AEA = NCCOCC(=O)O
Assays:
[1] = target: His-tagged CD8α human recombinant protein (Homo sapiens, UniProt P01732); assay: CD8 ELISA (affinity assay) of biligands to determine cooperativity; assay type: binding; parameters: purchased Origene TP760215; conditions: biotinylated biligand immobilized on NeutrAvidin plate; CD8α titrated 200 to 0 nM; read-out: EC50 against CD8
Chain of His-tagged CD8α human recombinant protein (P01732 22-235): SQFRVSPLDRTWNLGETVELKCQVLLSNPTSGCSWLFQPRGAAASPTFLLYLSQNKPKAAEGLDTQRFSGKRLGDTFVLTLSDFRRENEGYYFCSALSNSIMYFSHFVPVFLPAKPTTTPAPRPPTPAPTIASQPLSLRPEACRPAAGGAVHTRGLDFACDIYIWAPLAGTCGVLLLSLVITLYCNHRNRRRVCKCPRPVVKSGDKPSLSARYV
Protocol: CD8 ELISA (Affinity assay). […] The plate was then blocked with 2 μM Biotin for 15 min.
This predicts that an optimized linker to covalently join two PCC macrocycles will have a length near 28.2 Å. In FIG. 17 that prediction is validated by testing polyethylene glycol (PEG) linkers of varying lengths. […] This represents a >30-fold improvement in affinity relative to the individual PCC macrocyclic ligands. Shorter or longer linkers yield biligand affinities that, while improved over either of the PCC macrocycles, are about ˜10-fold below that of the optimal linker.

[2] = In vivo PET imaging, PK and biodistribution in normal mice; conditions: normal mouse, intravenous via tail vein, 50-100 μCi
Protocol: In vivo PK of the radiolabeled macrocycle anchors and biligands was visualized and quantitatively determined by PET imaging in normal (healthy) mice. Radiolabeled peptides were formulated in PBS pH 7.4 containing <10% EtOH. 50-100 μCi of radiolabeled peptide was administered intravenously via the tail vein of each mouse. Dynamic (0-1 hour) and static PET imaging was performed to quantify initial peptide biodistribution, time to clear the initial concentration sites, and final excretion route. A CT scan was subsequently acquired for anatomical reference. Imaging was performed on GENISYS8 and Inveon microPET-CT small animal scanners.

[3] = system: human PBMCs; assay: Cellular binding assay of CD8 biligand by flow cytometry; assay type: cell-based; conditions: human PBMCs co-stained with CD3-APC mAb; biligand 5 μM
Protocol: Cryopreserved human peripheral blood mononuclear cells (PBMCs) from Zen-Bio (1 donor; #SER-PBMC-F) were thawed using Lymphocyte Medium (#LYMPH-1, Zen-Bio) following the vendor's protocol. Cells were then resuspended in FACS buffer (1× Dulbecco's Phosphate-Buffered Saline+2% Fetal Bovine Serum+2 mM EDTA).
Protocol: A total of 1×10^6 human PBMCs in 50 μL of FACs buffer was incubated with 0.5 μL of Alexa Fluor 488-labeled biligand Cy(HGRGH) (SEQ ID NO: 21)-PEG5-Cy(AKYRG) (SEQ ID NO: 8) (final concentration: 5 μM), 2 μL of human CD3-APC mAb (clone: BW264/56) (#130-098-156, MACS Miltenyi Biotec), and 2.5 μL of 7-AAD Viability Staining Solution (#00-6993, eBioscience) at room temperature for 30 min. […] Data were obtained and analyzed with FACSCalibur and FACSDiva v8.0.1 (BD Biosciences), respectively.
Flow cytometry was used to evaluate biligand detection of cellular CD8. […] Samples were then washed and analyzed for green (CD8; FITC-A) and red (CD3; APC-A) fluorescence. […] The cell populations in Q2 (10.9%) and Q4 (11.6%) were detected by the biligand as CD8+ and are consistent with the % CD8+ cells reported by the vendor. […] The cell populations detected by the CD8-FITC mAb were 11.2% in Q2 and 2.1% in Q4.

Compound: C[C@H](O)[C@H]1NC(=O)[C@@H](Cc2c[nH]cn2)NC(=O)CNC(=O)[C@@H](N)CCCCn2cc(nn2)C[C@@H](C(=O)N[C@@H](CCCCNC(=O)CCCC[C@@H]2SC[C@@H]3NC(=O)N[C@@H]32)C(=O)NCCOCC(=O)N[C@H]2CCCCn3cc(nn3)C[C@@H](C(N)=O)NC(=O)[C@@H](Cc3c[nH]cn3)NC(=O)CNC(=O)[C@@H](CCCNC(=N)N)NC(=O)CNC(=O)[C@@H](Cc3c[nH]cn3)NC2=O)NC(=O)[C@H]2CCCN2C(=O)[C@@H](Cc2c[nH]c3ccccc23)NC1=O [Cy(Ghtwp)-Lys (Biotin)-PEG1-Cy(hGrGh)] (H-[Lys(N3)]G[dH][dT][dW][dP][Pra]K(Biotin)[AEA][Lys(N3)][dH]G[dR]G[dH][Pra]-NH2; triazole 1-7, 10-16)
- EC50 [1]: 0.058 nM

Compound: O=Cc1ccc([18F])cc1 [[^18F]FB, 4-[^18F]fluorobenzaldehyde]
- biodistribution and clearance route by PET (in words) [2]: rapid kidney uptake and clearance, then near exclusive bladder occupancy by 30 minutes

Compound: Alexa Fluor 488-labeled biligand Cy(HGRGH)-PEG5-Cy(AKYRG): biligand Cy(HGRGH)-PEG5-Cy(AKYRG) resynthesized with an Alexa Fluor 488 label (not fully specified (bridges); also: PEG5 linker joins the two macrocycles, Alexa Fluor 488 label, site not given here)
- cell population in Q2 detected as CD8+ [3]: 10.9%
- cell population in Q4 detected as CD8+ [3]: 11.6%
